Assay [1] relates to alcoholism treatment. Particulars: medication alone; cited from earlier work.
Assay [2] relates to EOA and LOA alcoholics. Particulars: ondansetron 1, 4, 16 μg/kg twice daily (particularly 4 μg/kg), compared with LOA; cited from earlier work.
The subject of assay [3] is alcohol dependence. Particulars: topiramate up to 300 mg per day, 12 weeks, vs. placebo; cited from earlier work.
The test system of assay [4] is alcohol-preferring (P) rats. As to the kind of experiment: Combined topiramate and naltrexone on alcohol consumption in animal model. Format: in vivo. The following applies: 8 rats. The protocol:
FIG. 8 graphically illustrates the combined effect of topiramate and naltrexone on alcohol consumption in alcohol-preferring (P) rats. Rats received either vehicle, topiramate at 5 mg/kg, topiramate at 10 mg/kg, naltrexone at 1/mg/kg and topiramate at 5 mg/kg, naltrexone at 1/mg/kg and topiramate at 10 mg/kg, or naltrexone at 1 mg/kg. Each data point represents the mean (±SE) of 8 rats as a change from baseline.
No significant differences were observed following vehicle injection. Data are plotted as change from baseline consumption, and each data point represents a mean (±SE) of 8 rats.

The subject of assay [5] is rhesus monkeys. As to the kind of experiment: Naltrexone's effects on alcohol drinking in non-human primates, fixed ratio schedule of reinforcement. The following applies: three non food deprived rhesus monkeys, 3 hour sessions, naltrexone 0.1, 0.3, 1.0, 3.0 g/kg, water concurrently available. Format: in vivo. As for the experimental part:
FIG. 3 graphically illustrates the effects of Naltrexone on alcohol consumption in non-human primates (rhesus monkeys). Naltrexone was administered at 0.1 (∘), 0.3 ([…]), 1.0 (□) or 3.0 (▪) […]. The ordinate represents cumulative deliveries as percent change from baseline. The abscissa represents time in 10 minute blocks.
This study was principally conducted as a collaboration with Richard Meisch and Alan Boyle. […] During these 3 hour sessions, both water and alcohol were concurrently available.

Structures can show the parent of a compound that is named as a salt.

In the case of `Cc1nccn1CC1CCc2c(c3ccccc3n2C)C1=O` (stereo not drawn) [ondansetron, 9-methyl-3-[(2-methyl-1H-imidazol-1-yl)methyl]-1,2,3,9-tetrahydrocarbazol-4-one], the typical effect sizes in assay [1] was 0.2±0.5. For the same molecule, in assay [2], the drinking result was “significant reductions”.

As to `CC1(C)O[C@@H]2[C@@H](CO[C@@]3(COS(N)(=O)=O)OC(C)(C)O[C@@H]23)O1` [topiramate, 2,3:4,5-Bis-O-(1-methylethylidene)-beta-D-fructopyranose sulfamate], in assay [3], the craving result is reported as “significantly less”; the days of abstinence result is reported as “significantly more”; the “drinks per day, drinking days, and drinks per drinking day” value is reported as “significantly fewer”. The “alcohol consumption, change from baseline” value in assay [4] (topiramate alone, 10 mg/kg intraperitoneally, effect not yet significant) was “only modestly decreased”.

Take `O=C1CC[C@@]2(O)[C@H]3Cc4ccc(O)c5c4[C@@]2(CCN3CC2CC2)[C@H]1O5` [naltrexone, 17-(Cyclopropylmethyl)-4,5a-epoxy-3,14-dihydroxymorphinan-6-one hydrochloride]: the “alcohol consumption (8% w/v)” value in assay [5] is recorded as “dose-dependent decreases”. Besides, the typical effect sizes in assay [1] was 0.2±0.5. The “alcohol consumption, change from baseline” value in assay [4] (naltrexone alone, 1 mg/kg intraperitoneally) was “did not affect alcohol consumption”.

The values above are taken from patent publication US20100076006A1, “Topiramate Plus Naltrexone for the Treatment of Addictive Disorders” (UNIVERSITY OF VIRGINIA PATENT FOUNDATION, priority 2007, published 2010).
